Measurements published in patent US12649748B2, “Wee1 inhibitor and use thereof” (JIANGSU TASLY DIYI PHARMACEUTICAL CO., LTD., priority 2021, dated 2026).
Read-outs that look alike come from different tables or passages of the source.

Tests used:
[1] = Plasma protein binding (PPB), rat; assay type: in vitro ADME; conditions: 5 h dialysis, read-out: Plasma protein binding rate (%) Rat (converted)
Method: Sample preparation: The compound was dissolved in DMSO to a stock solution of 10 mM, then the compound was diluted with PBS to a secondary stock solution of 0.02 mM, and then the above 0.02 mM was diluted to 1 μM using blank plasma, which was the sample to be incubated.
Dialysis set-up preparation: 400 μL of blank PBS was first added to the white wells of the equilibrated dialysis plate and 200 μL of the configured plasma sample was added to the red wells, and the dialysis plate was sealed with a sealing film.
Recovery plate preparation: Two 96-well deep-well plates, labelled T0 and T5, were prepared and all plasma samples were added at n=2. 300 μL of acetonitrile (Verapamil-HCl, 4 ng/mL) was added directly to the TO plate, followed by 50 μL of blank PBS mix well for 5 min and left to stand in a 4° C. refrigerator until the end of the incubation.
Experimental Operation: The dialysis device and the T5 plate were incubated together for 5 h in a microplate thermostatic shaker (37° C., using 300 rpm or minimum speed). At the end of the incubation, 300 μL of acetonitrile (Verapamil-HCl, 4 ng/mL) was added and 50 μL of PBS solution was added. At the end of the dialysis incubation, a new 96-well deep well plate was taken. Add 50 μL of plasma well sample to the corresponding position of the 96-well plate, 300 μL of acetonitrile and 50 μL of blank PBS; take 50 μL of buffer well sample to the corresponding position of the 96-well plate, then add 300 μL of acetonitrile and 50 μL of blank plasma. Add 300 μL of acetonitrile (Verapamil-HCl, 4 ng/mL) to the plasma-containing wells of the T5 plate, and then 50 μL of PBS solution was added. Shake for 5 min to fully precipitate the proteins and centrifuge at 20,000 g for 10 min at 4° C. Add 200 μL of supernatant to 200 μL of pure water, mix well and perform LC-MS/MS analysis.
2. Data Processing and Parameter Calculation Plasma protein binding rate=[(Rpe−Rb)/Rpe]×100% Recovery=[(Rpe+Rb)/R5h]×100% Stability=(R5/R0)×100% where • Rpe=ratio of plasma-side testing sample peak area to internal standard • Rb=ratio of buffer side testing sample peak area to internal standard • R5=ratio of incubator stability sample peak area to internal standard • R0=ratio of refrigerator stability sample peak area to internal standard 3.

H1299 cells = experiment: Anti-proliferative effect by Cell Titer-Glo, H1299; assay type: cell-based; conditions: Homo sapiens, NCI-H1299, 72 h, read-out: IC50 measured value H1299
Method: (§1) Compound solutions of different concentration gradients were prepared. DMSO was dissolved to a concentration of 10 mM test compound and 10 mM reference compound AZD1775, and the compounds were serially diluted in culture medium for a total of 9 dose points, with 2 parallel replicates set at each concentration. The cell growth group without compound was used as a positive control (maximum signal control) and the medium was used as a negative control (minimum signal control), while ensuring that the final level of DMSO in each reaction well was 0.2%. After removing the medium from the 384-well plate, 25 ul of the configured compound at different concentrations was transferred into the well plate and the compound and cells were incubated in the cell incubator at 37° C. with 5% CO2 for 3 days.
(§2) The 384-well plates were removed from the cell incubator and allowed to equilibrate for 1 h to room temperature. 25 ul of Cell Titer-Glo assay was added to each well, lysed on a shaker for 2 min and then read out (Luminescence) using a BMG PHERAStar after 10 min incubation. Calculate the inhibition rate from the luminescence signal: first calculate the average of the positive control (maximum signal control) and the negative control (minimum signal control).
(§3) [formula] to calculate the rate of inhibition of the cells by different concentrations of the compounds. The IC50 of the compound on cell activity inhibition was calculated by fitting a log(inhibitor) vs. response-Variable slope model to GraphPad Prism 6. The fitted equation was: Y=Bottom+(Top−Bottom)/(1+10^((Log IC50−X)*HillSlope)), where Y represents the rate of inhibition and X represents the concentration of the known compound after Log.

MIA Paca-2 cells = experiment: Anti-proliferative effect by Cell Titer-Glo, MIA Paca-2; assay type: cell-based; conditions: Homo sapiens, read-out: IC50 measured value MIA Paca-2
Method: as §1, §2, §3

CYP2C19 = CYP2C19 (Homo sapiens, UniProt P33261); experiment: Inhibition of cytochrome P450, CYP2C19; assay type: in vitro ADME; conditions: CYP2C19 enzyme, pH 7.4, probe EOMCC, read-out: CYP inhibition/% 2C19; for inhibition at 30 min, 1 µM: compound concentration 1 μM; for inhibition at 30 min, 10 µM: compound concentration 10 μM
Method: (§4) Enzymatic experiments were performed to quantify the inhibition of CYP450 enzyme activity of each isoform of CYP450 by small molecule inhibitors through fluorescence generated by the oxidation of the substrate by cytochrome P450. […] The Solution B composition used for the experiment was: 40 U/mL G6PDH (Sigma-aldrich, Cat #G6378). The substrate mix was 0.05× Solution A, 0.01× Solution B, 50 mM Potassium Phosphate, 0.01 mM BOMCC/0.01 mM EOMCC/0.001 mM DBOMF. […] The data were analyzed and processed using GraphPad Prism 6 software to obtain IC50 values.

CYP2C8 = biological target: T1, CYP2C8 (Homo sapiens, UniProt P10632); experiment: Inhibition of cytochrome P450, CYP2C8; assay type: in vitro ADME; conditions: CYP2C8 enzyme, pH 7.4, probe DBOMF, read-out: CYP inhibition/% 2C8; for inhibition at 30 min, 1 µM: compound concentration 1 μM; for inhibition at 30 min, 10 µM: compound concentration 10 μM
T1 sequence (P10632 1-490): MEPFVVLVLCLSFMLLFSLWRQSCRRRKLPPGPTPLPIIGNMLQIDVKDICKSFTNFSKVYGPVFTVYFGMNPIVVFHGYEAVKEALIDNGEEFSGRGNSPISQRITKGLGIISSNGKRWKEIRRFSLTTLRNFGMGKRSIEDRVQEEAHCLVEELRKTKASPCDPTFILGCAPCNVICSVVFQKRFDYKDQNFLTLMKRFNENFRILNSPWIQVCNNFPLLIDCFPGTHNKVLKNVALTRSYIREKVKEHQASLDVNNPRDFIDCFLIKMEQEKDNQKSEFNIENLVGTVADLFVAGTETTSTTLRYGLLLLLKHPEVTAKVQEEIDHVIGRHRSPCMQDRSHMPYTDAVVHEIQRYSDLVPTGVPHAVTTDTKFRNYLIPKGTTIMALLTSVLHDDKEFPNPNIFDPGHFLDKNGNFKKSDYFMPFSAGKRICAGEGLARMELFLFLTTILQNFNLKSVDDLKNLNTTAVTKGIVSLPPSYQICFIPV
Method: as §4

[2] = H1299 cells, 3 days, Cell Titer-Glo
[3] = 72 h, MIA Paca-2 cells, 3 days, Cell Titer-Glo

Chain of CYP2C19 (P33261 whole entry, canonical isoform): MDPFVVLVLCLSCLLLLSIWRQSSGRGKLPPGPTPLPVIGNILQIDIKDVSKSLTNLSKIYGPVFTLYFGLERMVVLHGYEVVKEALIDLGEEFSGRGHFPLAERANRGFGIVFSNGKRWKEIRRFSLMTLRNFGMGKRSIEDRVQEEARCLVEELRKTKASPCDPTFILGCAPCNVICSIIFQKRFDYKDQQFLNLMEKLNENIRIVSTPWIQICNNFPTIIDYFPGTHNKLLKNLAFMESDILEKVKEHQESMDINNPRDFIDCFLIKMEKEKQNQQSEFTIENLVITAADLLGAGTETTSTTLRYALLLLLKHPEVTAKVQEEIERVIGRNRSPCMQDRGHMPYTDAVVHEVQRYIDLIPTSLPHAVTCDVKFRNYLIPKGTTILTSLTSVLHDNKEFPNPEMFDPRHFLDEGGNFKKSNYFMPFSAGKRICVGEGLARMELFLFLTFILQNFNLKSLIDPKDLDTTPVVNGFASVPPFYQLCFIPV

fraction unbound at 5 h, 1 µM [1] | IC50 (H1299 cells; [2]) [nM] | IC50 (MIA Paca-2 cells; [3]) [nM] | inhibition at 30 min, 1 µM (CYP2C19) [%] | inhibition at 30 min, 10 µM (CYP2C19) [%] | inhibition at 30 min, 1 µM (CYP2C8) [%] | inhibition at 30 min, 10 µM (CYP2C8) [%] | Compound | IC50 (H1299 cells) [nM] | IC50 (MIA Paca-2 cells; MIA PaCa-2, 72 h) [nM]
0.374 | 100 to 1000 | 100 to 1000 | – | – | – | – | C=CCn1c(=O)c2cnc(Nc3ccc(N4CCN(C)CC4)cc3)nc2n1-c1cccc(C(C)(C)O)n1 [AZD-1775, reference compound] | – | –
– | 1000 to 5000 | – | 3.8 | 9.8 | -11 | 0.24 | CN1CCN(c2ccc(Nc3ncc4cnn(-c5cccc(C(C)(C)O)n5)c4n3)cc2)CC1 [Compound 2] | – | –
– | 100 to 1000 | – | -16.5 | -8.3 | -14.3 | 20.9 | CS(C)(=O)=Nc1cccc(-n2ncc3cnc(Nc4ccc(N5CCOCC5)cc4)nc32)n1 [Compound 6] | – | –
0.246 | 100 to 1000 | < 100 | – | – | – | – | Cc1cc(Nc2ncc3cnn(-c4cccc(N=S(C)(C)=O)n4)c3n2)ccc1N1CCC(N(C)C)CC1 [Compound 14] | – | –
0.179 | 100 to 1000 | 100 to 1000 | – | – | – | – | Cc1cc(Nc2ncc3cnn(-c4cccc(N=S(C)(C)=O)n4)c3n2)ccc1N1CCN(C)CC1 [Compound 16] | – | –

Compound | fraction unbound at 5 h, 1 µM [1] | IC50 (H1299 cells; [2]) [nM] | IC50 (MIA Paca-2 cells; [3]) [nM] | inhibition at 30 min, 1 µM (CYP2C19) [%] | inhibition at 30 min, 10 µM (CYP2C19) [%] | inhibition at 30 min, 1 µM (CYP2C8) [%] | inhibition at 30 min, 10 µM (CYP2C8) [%] | IC50 (H1299 cells) [nM] | IC50 (MIA Paca-2 cells; MIA PaCa-2, 72 h) [nM]
CN1CCN(c2ccc(Nc3ncc4cnn(-c5cccc(N=S(C)(C)=O)n5)c4n3)cc2)CC1 [Compound 1] | 0.404 | – | – | 3.3 | 10.7 | -5.3 | 3.2 | 1000 to 5000 | 100 to 1000
